Results as given in patent US20210038559A1, “CANNABINOIDS AND DERIVATIVES FOR PROMOTING IMMUNOGENICITY OF TUMOR AND INFECTED CELLS” (priority 2018, published 2021).

These compounds were tested on MHC-I expression by COLO 205 cells (assay: cells). Details: not given.
Assay type: cell-based, human
Experimental: A panel of synthetic cannabinoids (Cayman Chemical, #9002891) was tested for MHC class I-inducing capability in COLO 205 cells as described above. COLO 205 cells were treated with the compounds at a concentration of 35 μM and evaluated for cell surface MHC class I expression after 48 hours. Cells were harvested, stained with MHC-I mAb W6/32 (Thermo Fisher). MHC-I expression was determined by flow cytometry.
“1-naphthalenyl[1-(4-penten-1-yl)-1H-indol-3-yl]-methanone [Example 73]” was tested, and the “Induction Fold” value was 2.68 Fold.
With “1-naphthalenyl[5-(1-naphthalenyl)-1-pentyl-1H-pyrrol-3-yl]-methanone [Example 214]” the “Induction Fold” value was 1.80 Fold.
With `CCCCCn1cc(C(=O)Cc2cccc(OC)c2)c2ccccc21` [Example 28, 2-(3-methoxyphenyl)-1-(1-pentyl-1H-indol-3-y1)-ethanone] the “Induction Fold” value was 3.42 Fold.

Same assay, conditions: Homo sapiens, COLO 205, 48 h, MHC-I expression, COLO 205 cells, compounds at 35 μM, 48 hours, flow cytometry (W6/32); read-out: Induction Fold
With `COc1cccc2c(C(=O)N3CCN(C)C(C)C3)cn(CC3CCCCC3)c12` (racemic) [Example 277, [1-(cyclohexylmethyl)-7-methoxy-1H-indol-3-yl](3,4-dimethyl-1-piperazinyl)-methanone] the fold induction at 35 µM was 1.5.
With `CCCCCC(C)(C)c1ccc([C@H]2CCC[C@@H](O)C2)c(O)c1` (relative stereo) [Example 209, cis-5-(1,1-dimethylhexyl)-2-(3-hydroxycyclohexyl)-phenol] the fold induction at 35 µM was 1.84.
`CCCCCCCC(C)(C)c1ccc([C@@H]2CCC[C@H](O)C2)c(O)c1` (relative stereo) [Example 241, rel-5-(1,1-dimethyloctyl)-2-[(1R,3S)-3-hydroxycyclohexyl]-phenol] was tested, and the fold induction at 35 µM was 1.68.
Compound `CCCCCCC(C)(C)c1ccc([C@@H]2CCC[C@H](O)C2)c(O)c1` (relative stereo) [Example 353, rel-5-(1,1-dimethylheptyl)-2-[(1R,3S)-3-hydroxycyclohexyl]-phenol] has a fold induction at 35 µM of 1.06.
`CCCCCCCCC(C)(C)c1ccc([C@H]2CCC[C@@H](O)C2)c(O)c1` (relative stereo) [Example 374, cis-5-(1,1-dimethylnonyl)-2-(3-hydroxycyclohexyl)-phenol] gave a fold induction at 35 µM of 0.49.
`CCCCCCC(C)(C)c1ccc([C@@H]2C[C@@H](O)CC[C@H]2CCCO)c(O)c1` (relative stereo) [Example 375, rel-2-((1R,2R,5S)-5-hydroxy-2-(3-hydroxypropyl)cyclohexyl)-5-(2-methyloctan-2-yl)phenol] gave a fold induction at 35 µM of 0.33.
With `CCCCCn1nc(C(=O)N[C@@H](CCCC)C(N)=O)c2ccccc21` (single isomer, unassigned) [Example 11] the fold induction at 35 µM was 4.56.
In the case of `CCCCCn1nc(C(=O)N[C@H](C(N)=O)[C@@H](C)CC)c2ccccc21` (single isomer, unassigned) [Example 26], the fold induction at 35 µM is reported as 3.49.
`CCC(C(N)=O)N(C)C(=O)c1nn(Cc2ccc(F)cc2)c2ccccc12` (single isomer, unassigned) [Example 135, N-(1-amino-1-oxobutan-2-yl)-1-(4-fluorobenzyl)-N-methyl-1H-indazole-3-carboxamide] showed a fold induction at 35 µM of 2.23.
`CCCCCn1nc(C(=O)NC(C)(C(N)=O)C(C)C)c2ccccc21` (single isomer, unassigned) [Example 151, N-(1-amino-2,3-dimethyl-1-oxobutan-2-yl)-1-pentyl-1H-indazole-3-carboxamide] gave a fold induction at 35 µM of 2.13.
Work on `CCCC(NC(=O)c1nn(Cc2ccc(F)cc2)c2ccccc12)C(N)=O` (single isomer, unassigned) [Example 169, N-(1-amino-1-oxopentan-2-yl)-1-(4-fluorobenzyl)-1H-indazole-3-carboxamide] yielded a fold induction at 35 µM of 2.01.
Work on `CCC(C)(NC(=O)c1nn(Cc2ccc(F)cc2)c2ccccc12)C(N)=O` (single isomer, unassigned) [Example 287, N-(1-amino-2-methyl-1-oxobutan-2-yl)-1-(4-fluorobenzyl)-1H-indazole-3-carboxamide] yielded a fold induction at 35 µM of 1.45.
`CC[C@H](C)[C@H](NC(=O)c1nn(CCCCCF)c2ccccc12)C(N)=O` (single isomer, unassigned) [Example 298] gave a fold induction at 35 µM of 1.42.
Compound `CC(C)(NC(=O)c1c2ccccc2nn1CCCCC#N)c1ccccc1` (single isomer, unassigned) [Example 299, 2-(4-cyanobutyl)-N-(2-phenylpropan-2-yl)-2H-indazole-3-carboxamide] has a fold induction at 35 µM of 1.42.
In the case of `O=C(NC1C2CC3CC(C2)CC1C3)c1nn(CC2CCOCC2)c2ccccc12` (single isomer, unassigned) [Example 352, N-(adamantan-2-yl)-1-((tetrahydro-2H-pyran-4-yl)methyl)-1H-indazole-3-carboxamide], the fold induction at 35 µM is reported as 1.07.
With `O=C(NC12CC3CC(CC(C3)C1)C2)c1nn(CC2CCOCC2)c2ccccc12` (single isomer, unassigned) [Example 361, 1-[(tetrahydro-2H-pyran-4-yl)methyl]-N-tricyclo[3.3.1.1^3,7]dec-1-yl-1H-indazole-3-carboxamide] the fold induction at 35 µM was 0.95.
Work on `CN1CCCCC(Cn2cc(C(=O)c3cccc4ccccc34)c3ccccc32)C1` (stereo not drawn) [Example 6, (1-((1-methylazepan-3-yl)methyl)-1H-indol-3-yl)(naphthalen-1-yl)methanone] yielded a fold induction at 35 µM of 5.6.
With `CN1CCCCC1Cn1cc(C(=O)c2cc([N+](=O)[O-])ccc2I)c2ccccc21` (stereo not drawn) [Example 7, (2-iodo-5-nitrophenyl)-(1-(1-methylpiperidin-2-ylmethyl)-1H-indol-3-yl)methanone] the fold induction at 35 µM was 5.59.
`O=C(Oc1ccnc2ccccc12)c1cn(CC2CCCCC2)c2ccccc12` [Example 9, quinolin-4-yl 1-(cyclohexylmethyl)-1H-indole-3-carboxylate] showed a fold induction at 35 µM of 5.41.
`CCCCCn1cc(C(=O)Oc2ccnc3ccccc23)c2ccccc21` [Example 10, quinolin-4-yl 1-pentyl-1H-indole-3-carboxylate] gave a fold induction at 35 µM of 5.02.
Compound `O=C(Oc1ccc2cccnc2c1)c1cn(CCCCCF)c2ccccc12` [Example 12, quinolin-7-yl 1-(5-fluoropentyl)-1H-indole-3-carboxylate] has a fold induction at 35 µM of 4.34.
`O=C(c1ccc2ccccc2c1)c1cn(CCN2CCOCC2)c2ccccc12` [Example 13, [1-[2-(4-morpholinyl)ethyl]-1H-indol-3-yl]-2-naphthalenyl-methanone] gave a fold induction at 35 µM of 4.3.
`COC(=O)[C@@H](NC(=O)c1nn(CC2CCCCC2)c2ccccc12)C(C)C` [Example 14, N-[[1-(cyclohexylmethyl)-1H-indazol-3-yl]carbonyl]-L-valine, methyl ester] was tested, and the fold induction at 35 µM was 4.2.
`COC(=O)[C@@H](NC(=O)c1nn(Cc2ccc(F)cc2)c2ccccc12)C(C)C` [Example 15, N-[[1-[(4-fluorophenyl)methyl]-1H-indazol-3-yl]carbonyl]-L-valine, methyl ester] gave a fold induction at 35 µM of 4.2.
`O=C(Oc1cccc2ccncc12)c1cn(CCCCCF)c2ccccc12` [Example 16, isoquinolin-8-yl 1-(5-fluoropentyl)-1H-indole-3-carboxylate] showed a fold induction at 35 µM of 4.19.
`CCCCCn1cc(C(=O)Oc2cccc3ccncc23)c2ccccc21` [Example 17, isoquinolin-8-yl 1-pentyl-1H-indole-3-carboxylate] gave a fold induction at 35 µM of 4.11.
`CCCCCn1cc(C(=O)Oc2ccc3cccnc3c2)c2ccccc21` [Example 18, quinolin-7-yl 1-pentyl-1H-indole-3-carboxylate] showed a fold induction at 35 µM of 4.08.
`O=C(Oc1cncc2ccccc12)c1cn(CCCCCF)c2ccccc12` [Example 19, isoquinolin-4-yl 1-(5-fluoropentyl)-1H-indole-3-carboxylate] was tested, and the fold induction at 35 µM was 4.06.
Compound `CCCCCn1cc(C(=O)c2ccccc2OC)c2ccccc21` [Example 20, (2-methoxyphenyl)(1-pentyl-1H-indol-3-yl)-methanone] has a fold induction at 35 µM of 3.98.
`COc1ccc(C(=O)c2cn(CCN3CCOCC3)c3ccccc23)c2ccccc12` [Example 21, (4-methoxy-1-naphthalenyl)[1-[2-(4-morpholinyl)ethyl]-1H-indol-3-yl]-methanone] showed a fold induction at 35 µM of 3.85.
Compound `CCCCn1cc(C(=O)c2c(C)ccc3ccccc23)c2ccccc21` [Example 22, (1-butyl-1H-indol-3-yl)(2-methylnaphthalen-1-yl)methanone] has a fold induction at 35 µM of 3.84.
Compound `CN1CCCC[C@@H]1Cn1cc(C(=O)c2cc([N+](=O)[O-])ccc2I)c2ccccc21` [Example 23, (2-iodo-5-nitrophenyl)[1-[[(2R)-1-methyl-2-piperidinyl]methyl]-1H-indol-3-yl]methanone] has a fold induction at 35 µM of 3.64.
`CN1CCCCC(n2cc(C(=O)c3ccccc3I)c3ccccc32)C1` (stereo not drawn) [Example 24, (2-iodophenyl)(1-(1-methylazepan-3-yl)-1H-indol-3-yl)methanone] was tested, and the fold induction at 35 µM was 3.64.
`CCCCCn1cc(C(=O)c2c(C)ccc3ccccc23)c2ccccc21` [Example 25, (2-methylnaphthalen-1-yl)(1-pentyl-1H-indol-3-yl)methanone] gave a fold induction at 35 µM of 3.6.
For `Cc1c(C(=O)c2ccccc2)c(N)c(-c2ccccc2)n1Cc1ccc(Cl)cc1` [Example 27, [4-amino-1-[(4-chlorophenyl)methyl]-2-methyl-5-phenyl-1H-pyrrol-3-yl]phenyl-methanone], the fold induction at 35 µM was 3.43.
Work on `NC(=O)[C@H](Cc1ccccc1)NC(=O)c1nn(CC2CCCCC2)c2ccccc12` [Example 29, N-[(1S)-2-amino-2-oxo-1-(phenylmethyl)ethyl]-1-(cyclohexylmethyl)-1H-Indazole-3-carboxamide] yielded a fold induction at 35 µM of 3.41.
For `O=C(Oc1ccc2ncccc2c1)c1cn(CCCCCF)c2ccccc12` [Example 30, quinolin-6-yl 1-(5-fluoropentyl)-1H-indole-3-carboxylate], the fold induction at 35 µM was 3.4.

Same assay, conditions: MHC-I expression, COLO 205 cells, compounds at 35 μM, 48 hours, flow cytometry (W6/32)
For `CCCCCCCC(C)(C)c1ccc([C@H]2CCC[C@H](O)C2)c(O)c1` (relative stereo) [Example 301, rel-2-[(1S,3S)-3-hydroxycyclohexyl)]-5-(2-methylnonan-2-yl)phenol], the “Induction Fold” value was 1.41 Fold.
With `CCOC(=O)[C@@H](NC(=O)c1nn(Cc2ccc(F)cc2)c2ccccc12)C(C)C` [Example 8, ethyl (1-(4-fluorobenzyl)-1H-indazole-3-carbonyl)-1-valinate] the “Induction Fold” value was 5.50 Fold.
